Where a name gives a salt, the structure may show the parent alone.
Target: T1, human thrombin (Homo sapiens, UniProt P00734)
T1 construct: human thrombin (Sigma, specific activity 3230 UNIH/mg); purchased Sigma
Assay: Inhibition of human thrombin activity on human fibrinogen (fibrin formation, 405 nm)
Type: biochemical
Conditions: thrombin 0.7 nM, purified human fibrinogen, pre-incubation 20° C. 10 minutes, pH 7.4; read-out: IC50 (concentration of the compounds that inhibits 50% of the enzymatic activity of the thrombin)
Protocol: For in vitro evaluation of the inhibitory activity of the products of the invention on human thrombin (Sigma, specific activity 3230 UNIH/mg), purified human fibrinogen ([…], Stago) (Fg) was added to a given amount of thrombin (0.7 nM) that had previously been incubated with or without the inhibitor to be tested (20° C., 10 minutes).
Inhibitors, enzymes and substrates are diluted in the same buffer ([…] phosphate buffer, pH 7.4, containing 0.12 M sodium chloride and 0.05% bovine serum albumin) and then distributed on a polystyrene microtitre plate in a volume of 50 μl.
The fibrin formed by the thrombin is measured using a spectrophotometer at 405 nm after from 10 to 15 minutes' reaction at 20° C.
The table below gives in nM the concentration of the compounds that inhibits 50% of the enzymatic activity (IC50) of the thrombin compared with the control without product.

Structure (SMILES)	IC50 [nM]
O=C(NCc1ccccc1F)C1CCc2cnc(NCC(F)(F)c3cccc[n+]3[O-])c(=O)n21 (racemic) [Example 1, 3-{[2,2-Difluoro-2-(1-oxido-2-pyridyl)ethyl]amino}-N-(2-fluorobenzyl)4-oxo-4,6,7,8-tetrahydropyrrolo[1,2-a]pyrazine-6-carboxamide]	28
O=C(NCc1ccccc1Cl)C1CCc2cnc(NCC(F)(F)c3cccc[n+]3[O-])c(=O)n21 (racemic) [Example 8, 3-{[2,2-Difluoro-2-(1-oxido-2-pyridyl)ethyl]amino}-N-(2-chlorobenzyl)-4-oxo-4,6,7,8-tetrahydropyrrolo[1,2-a]pyrazine-6-carboxamide]	38
O=C(NCc1ccccc1F)[C@@H]1CCc2cnc(NCC(F)(F)c3cccc[n+]3[O-])c(=O)n21 [Example 3, (6S)-3-{[2,2-Difluoro-2-(1-oxido-2-pyridyl)ethyl]amino}-N-(2-fluorobenzyl)-4-oxo-4,6,7,8-tetrahydropyrrolo[1,2-a]pyrazine-6-carboxamide]	16
O=C(COc1ccccc1CNC(=O)C1CCc2cnc(NCC(F)(F)c3cccc[n+]3[O-])c(=O)n21)NCCc1ccccn1 (stereo not shown) [Example 15, 3-{[2,2-Difluoro-2-(1-oxido-2-pyridyl)ethyl]amino}4-oxo-N-[2-(2-oxo-2-{[2-(2-pyridyl)ethyl]amino}ethoxy)benzyl]-4,6,7,8-tetrahydropyrrolo[1,2-a]pyrazine-6-carboxamide hydrochloride]	1.4
O=C(NCc1c(F)ccc(F)c1F)[C@@H]1CCc2cnc(NCC(F)(F)c3cccc[n+]3[O-])c(=O)n21 [Example 21, (6S)-3-{[2,2-Difluoro-2-(1-oxido-2-pyridyl)ethyl]amino}-N-(2,3,6-trifluorobenzyl)-4-oxo-4,6,7,8-tetrahydropyrrolo[1,2-a]pyrazine-6-carboxamide]	11
O=C(NCc1cccs1)[C@@H]1CCc2cnc(NCC(F)(F)c3cccc[n+]3[O-])c(=O)n21 [Example 24, (6S)-3-{[2,2-Difluoro-2-(1-oxido-2-pyridyl)ethyl]amino}-N-(2-thienylmethyl)-4-oxo-4,6,7,8-tetrahydropyrrolo[1,2-a]pyrazine-6-carboxamide hydrochloride]	60
O=C(NCc1ccccc1F)[C@@H]1CCc2cnc(NCC(F)(F)c3ccc4ccccc4[n+]3[O-])c(=O)n21 [Example 31, (6S)-3-{[2,2-Difluoro-2-(1-oxido 2-quinolinyl)ethyl]amino}-N-(2-fluorobenzyl)4-oxo-4,6,7,8-tetrahydropyrrolo[1,2-a]pyrazine 6-carboxamide]	8.4

Reference: patent publication US7498330B2, “4-oxo-4,6,7,8-tetrahydro-pyrrolo[1,2-a]pyrazine-6-carboxamide compounds” (Les Laboratories Servier, priority 2004, dated 2009)
